In ChEMBL document CHEMBL2046379, “CCLab--a multi-objective genetic algorithm based combinatorial library design software and an application for histone deacetylase inhibitor design” (Bioorg Med Chem Lett, 2012):

These molecules were tested against Histone deacetylase 1 (Homo sapiens, UniProt Q13547) (assay: Inhibition of human recombinant His6-tagged and GST-fuses HDAC1 expressed in insect High5 cells using Ac-Lys-Tyr-Lys(e-acetyl)-AMC as substrate after 24 hrs by fluorescence assay).
Chain of Histone deacetylase 1 (Q13547 whole entry): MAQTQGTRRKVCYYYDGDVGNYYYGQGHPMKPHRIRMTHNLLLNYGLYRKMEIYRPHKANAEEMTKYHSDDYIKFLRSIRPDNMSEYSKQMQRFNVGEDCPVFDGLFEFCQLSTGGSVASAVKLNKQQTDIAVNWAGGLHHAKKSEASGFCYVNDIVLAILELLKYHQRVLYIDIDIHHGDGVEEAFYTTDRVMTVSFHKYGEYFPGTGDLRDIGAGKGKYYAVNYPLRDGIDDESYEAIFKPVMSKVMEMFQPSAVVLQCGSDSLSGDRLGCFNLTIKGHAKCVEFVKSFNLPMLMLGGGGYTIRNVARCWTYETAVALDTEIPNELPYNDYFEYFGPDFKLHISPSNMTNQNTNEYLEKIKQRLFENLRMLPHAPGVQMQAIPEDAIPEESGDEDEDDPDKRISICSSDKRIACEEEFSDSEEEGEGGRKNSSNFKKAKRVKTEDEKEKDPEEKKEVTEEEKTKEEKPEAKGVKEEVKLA

Row | Structure (SMILES) | IC50 [µM]
1 | C=CCCC(=O)Nc1ccc(C(=O)N2CCc3nc(C(=O)NO)sc3C2)cc1 | 9.7
2 | O=C(NCCCN1CCc2nc(C(=O)NO)sc2C1)c1ccc(-c2ccccc2)s1 | 5.67
3 | COc1ccc(/C=C/C(=O)NCCCN2CCc3nc(C(=O)NO)sc3C2)cc1 | 10.3
4 | COc1ccc(/C=C/C(=O)NCCCCN2CCc3nc(C(=O)NO)sc3C2)cc1 | 35.1
5 | CC(C)N(C(=O)/C=C/c1ccccc1)c1cccc(CN2CCc3nc(C(=O)NO)sc3C2)c1 | 11.5
6 | COc1ccc(/C=C/C(=O)Nc2ccc(C(C)N3CCc4nc(C(=O)NO)sc4C3)cn2)cc1 (centres undefined) | 6.8
7 | O=C(/C=C/c1ccccc1)NCCCN1CCc2nc(C(=O)NO)sc2C1 | 39.4

Results, then the molecule that gave them:

Row | IC50 [µM] | Structure (SMILES)
8 | 65.7 | C=CCCC(=O)Nc1ccc(C(C)N2CCc3nc(C(=O)NO)sc3C2)cn1 (centres undefined)
9 | 6.08 | O=C(NCCCCN1CCc2nc(C(=O)NO)sc2C1)c1ccc(-c2ccccc2)s1
10 | 40.1 | O=C(/C=C/c1ccccc1)NCCCCN1CCc2nc(C(=O)NO)sc2C1
11 | 22.5 | COc1ccc(/C=C/C(=O)Nc2ccc(C(=O)N3CCc4nc(C(=O)NO)sc4C3)cc2)cc1
12 | 2.59 | O=C(Nc1ccc(C(=O)N2CCc3nc(C(=O)NO)sc3C2)cc1)c1ccc(-c2ccccc2)s1
13 | 6.8 | CC(c1ccc(NC(=O)/C=C/c2ccccc2)nc1)N1CCc2nc(C(=O)NO)sc2C1 (centres undefined)
14 | 2.96 | CC(c1ccc(NC(=O)c2ccc(-c3ccccc3)s2)nc1)N1CCc2nc(C(=O)NO)sc2C1 (centres undefined)

The molecules below were run against T1, Protein deacetylase HDAC6 (Homo sapiens, UniProt Q9UBN7) (assay: Inhibition of human recombinant His6-tagged and GST-fuses HDAC6 expressed in insect High5 cells using Boc-Lys(eacetyl)- AMC as substrate after 3 hrs by fluorescence assay).
T1 sequence (Q9UBN7 whole entry): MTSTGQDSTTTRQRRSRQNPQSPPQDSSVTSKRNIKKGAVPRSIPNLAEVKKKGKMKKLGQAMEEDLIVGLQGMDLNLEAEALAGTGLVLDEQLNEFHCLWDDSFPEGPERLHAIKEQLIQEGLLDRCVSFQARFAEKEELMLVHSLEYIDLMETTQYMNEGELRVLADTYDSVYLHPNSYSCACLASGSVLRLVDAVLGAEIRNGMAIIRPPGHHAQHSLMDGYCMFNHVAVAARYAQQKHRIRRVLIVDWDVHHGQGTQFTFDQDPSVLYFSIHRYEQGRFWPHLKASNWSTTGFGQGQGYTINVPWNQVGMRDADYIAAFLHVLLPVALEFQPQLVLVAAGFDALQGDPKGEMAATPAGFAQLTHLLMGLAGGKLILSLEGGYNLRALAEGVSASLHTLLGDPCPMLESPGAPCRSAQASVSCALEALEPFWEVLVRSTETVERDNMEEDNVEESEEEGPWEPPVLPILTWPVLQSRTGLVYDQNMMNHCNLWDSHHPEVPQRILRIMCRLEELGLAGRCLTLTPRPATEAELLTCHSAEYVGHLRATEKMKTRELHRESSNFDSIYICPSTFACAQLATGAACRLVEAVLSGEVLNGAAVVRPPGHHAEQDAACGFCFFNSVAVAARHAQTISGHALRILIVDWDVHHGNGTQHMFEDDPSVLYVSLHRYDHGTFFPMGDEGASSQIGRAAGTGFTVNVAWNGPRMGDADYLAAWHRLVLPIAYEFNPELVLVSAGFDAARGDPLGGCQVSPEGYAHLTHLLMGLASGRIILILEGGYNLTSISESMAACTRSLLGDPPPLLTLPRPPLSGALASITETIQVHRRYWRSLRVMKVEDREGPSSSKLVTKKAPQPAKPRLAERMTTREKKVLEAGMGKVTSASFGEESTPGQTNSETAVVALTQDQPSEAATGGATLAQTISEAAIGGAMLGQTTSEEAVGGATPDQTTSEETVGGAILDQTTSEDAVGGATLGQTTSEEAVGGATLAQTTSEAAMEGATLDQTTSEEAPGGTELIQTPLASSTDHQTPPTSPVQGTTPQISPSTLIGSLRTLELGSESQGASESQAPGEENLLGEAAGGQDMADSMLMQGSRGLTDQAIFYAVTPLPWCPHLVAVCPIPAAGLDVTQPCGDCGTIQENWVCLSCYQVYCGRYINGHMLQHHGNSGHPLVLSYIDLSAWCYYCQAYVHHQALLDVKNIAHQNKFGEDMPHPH

Row | Structure (SMILES) | IC50 [µM]
15 | C=CCCC(=O)Nc1ccc(C(=O)N2CCc3nc(C(=O)NO)sc3C2)cc1 | 0.39
16 | O=C(NCCCN1CCc2nc(C(=O)NO)sc2C1)c1ccc(-c2ccccc2)s1 | 3.39
17 | COc1ccc(/C=C/C(=O)NCCCN2CCc3nc(C(=O)NO)sc3C2)cc1 | 8.77
18 | COc1ccc(/C=C/C(=O)NCCCCN2CCc3nc(C(=O)NO)sc3C2)cc1 | 9.55
19 | C=CCCC(=O)NCCCCN1CCc2nc(C(=O)NO)sc2C1 | 24.7
20 | CC(C)N(C(=O)/C=C/c1ccccc1)c1cccc(CN2CCc3nc(C(=O)NO)sc3C2)c1 | 1.22
21 | COc1ccc(/C=C/C(=O)Nc2ccc(C(C)N3CCc4nc(C(=O)NO)sc4C3)cn2)cc1 (centres undefined) | 1.55
22 | O=C(/C=C/c1ccccc1)NCCCN1CCc2nc(C(=O)NO)sc2C1 | 13.5

Now from value to molecule:

Row | IC50 [µM] | Structure (SMILES)
23 | 13.5 | C=CCCC(=O)Nc1ccc(C(C)N2CCc3nc(C(=O)NO)sc3C2)cn1 (centres undefined)
24 | 2.69 | O=C(NCCCCN1CCc2nc(C(=O)NO)sc2C1)c1ccc(-c2ccccc2)s1
25 | 23.2 | O=C(/C=C/c1ccccc1)NCCCCN1CCc2nc(C(=O)NO)sc2C1
26 | 0.45 | COc1ccc(/C=C/C(=O)Nc2ccc(C(=O)N3CCc4nc(C(=O)NO)sc4C3)cc2)cc1
27 | 58.7 | C=CCCC(=O)NCCCN1CCc2nc(C(=O)NO)sc2C1
28 | 0.12 | O=C(Nc1ccc(C(=O)N2CCc3nc(C(=O)NO)sc3C2)cc1)c1ccc(-c2ccccc2)s1
29 | 1.07 | CC(c1ccc(NC(=O)/C=C/c2ccccc2)nc1)N1CCc2nc(C(=O)NO)sc2C1 (centres undefined)
30 | 1.33 | CC(c1ccc(NC(=O)c2ccc(-c3ccccc3)s2)nc1)N1CCc2nc(C(=O)NO)sc2C1 (centres undefined)

What follows are molecules tested against Histone deacetylase 3 (Homo sapiens, UniProt O15379) (assay: Inhibition of human recombinant His6-tagged and GST-fuses HDAC3 expressed in insect High5 cells using Ac-Lys-Tyr-Lys(e-acetyl)-AMC as substrate after 24 hrs by fluorescence assay).
Chain of Histone deacetylase 3 (O15379 whole entry): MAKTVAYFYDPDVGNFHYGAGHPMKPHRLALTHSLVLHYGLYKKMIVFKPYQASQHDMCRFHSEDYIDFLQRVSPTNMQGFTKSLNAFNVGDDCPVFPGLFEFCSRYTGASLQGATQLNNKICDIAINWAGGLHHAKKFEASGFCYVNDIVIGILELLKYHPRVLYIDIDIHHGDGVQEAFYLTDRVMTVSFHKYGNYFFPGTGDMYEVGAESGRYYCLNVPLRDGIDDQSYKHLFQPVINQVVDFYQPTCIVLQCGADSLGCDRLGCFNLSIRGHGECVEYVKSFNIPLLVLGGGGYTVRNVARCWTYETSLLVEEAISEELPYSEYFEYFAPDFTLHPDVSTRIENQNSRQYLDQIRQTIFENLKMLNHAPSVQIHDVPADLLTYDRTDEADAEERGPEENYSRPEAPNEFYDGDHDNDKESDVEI

Row | Structure (SMILES) | IC50 [µM]
31 | C=CCCC(=O)Nc1ccc(C(=O)N2CCc3nc(C(=O)NO)sc3C2)cc1 | 9.38
32 | O=C(NCCCN1CCc2nc(C(=O)NO)sc2C1)c1ccc(-c2ccccc2)s1 | 5.09
33 | COc1ccc(/C=C/C(=O)NCCCN2CCc3nc(C(=O)NO)sc3C2)cc1 | 6.62
34 | COc1ccc(/C=C/C(=O)NCCCCN2CCc3nc(C(=O)NO)sc3C2)cc1 | 34.1
35 | CC(C)N(C(=O)/C=C/c1ccccc1)c1cccc(CN2CCc3nc(C(=O)NO)sc3C2)c1 | 2.19
36 | COc1ccc(/C=C/C(=O)Nc2ccc(C(C)N3CCc4nc(C(=O)NO)sc4C3)cn2)cc1 (centres undefined) | 5.7
37 | O=C(/C=C/c1ccccc1)NCCCN1CCc2nc(C(=O)NO)sc2C1 | 13.5

Next, values leading:

Row | IC50 [µM] | Structure (SMILES)
38 | 19.2 | C=CCCC(=O)Nc1ccc(C(C)N2CCc3nc(C(=O)NO)sc3C2)cn1 (centres undefined)
39 | 4.89 | O=C(NCCCCN1CCc2nc(C(=O)NO)sc2C1)c1ccc(-c2ccccc2)s1
40 | 26.4 | O=C(/C=C/c1ccccc1)NCCCCN1CCc2nc(C(=O)NO)sc2C1
41 | 16.1 | COc1ccc(/C=C/C(=O)Nc2ccc(C(=O)N3CCc4nc(C(=O)NO)sc4C3)cc2)cc1
42 | 2.66 | O=C(Nc1ccc(C(=O)N2CCc3nc(C(=O)NO)sc3C2)cc1)c1ccc(-c2ccccc2)s1
43 | 4.8 | CC(c1ccc(NC(=O)/C=C/c2ccccc2)nc1)N1CCc2nc(C(=O)NO)sc2C1 (centres undefined)
44 | 1.94 | CC(c1ccc(NC(=O)c2ccc(-c3ccccc3)s2)nc1)N1CCc2nc(C(=O)NO)sc2C1 (centres undefined)
